Experimental data: patent US9133158B2, “Bicyclic dihydroisoquinoline-1-one derivatives” (Hoffmann-La Roche Inc., priority 2011, dated 2015)

Tests used:
human CYP11B2 = molecular target: T1, human CYP11B2 (Homo sapiens, UniProt P19099); assay: G-402 cellular enzyme assay, human CYP11B2 (aldosterone release, HTRF); assay type: cell-based; conditions: G-402 cells, 1 μM Deoxycorticosterone
T1 construct: expressed in transfected cells
T1 sequence (P19099 25-503): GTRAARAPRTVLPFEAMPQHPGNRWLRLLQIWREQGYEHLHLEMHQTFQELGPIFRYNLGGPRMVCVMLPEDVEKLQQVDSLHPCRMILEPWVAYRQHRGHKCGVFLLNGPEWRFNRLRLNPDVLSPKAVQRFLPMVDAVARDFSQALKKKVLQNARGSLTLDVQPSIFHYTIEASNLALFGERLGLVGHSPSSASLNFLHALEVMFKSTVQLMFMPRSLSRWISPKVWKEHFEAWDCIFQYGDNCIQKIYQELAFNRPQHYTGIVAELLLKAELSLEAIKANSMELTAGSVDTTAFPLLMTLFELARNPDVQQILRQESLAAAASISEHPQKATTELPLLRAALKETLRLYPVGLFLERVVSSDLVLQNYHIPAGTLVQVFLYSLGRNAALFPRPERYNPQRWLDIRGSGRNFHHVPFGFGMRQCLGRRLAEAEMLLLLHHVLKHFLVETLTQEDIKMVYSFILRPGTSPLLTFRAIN
In short: (§1)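 Stable G-402 transfectants; 16 h incubation with inhibitor plus substrate — CYP11B2: 1 μM deoxycorticosterone, aldosterone read; CYP11B1: 1 μM deoxycortisol, cortisol read. HTRF on supernatant. Medium DMEM/F12, 2.5% charcoal FCS. EC50 via MMF sigmoidal fit.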

human CYP11B1 = molecular target: T2, human CYP11B1 (Homo sapiens, UniProt P15538); assay: G-402 cellular enzyme assay, human CYP11B1 (cortisol release, HTRF); assay type: cell-based; conditions: G-402 cells, 1 μM Deoxycortisol
T2 construct: expressed in transfected cells
T2 sequence (P15538 25-503): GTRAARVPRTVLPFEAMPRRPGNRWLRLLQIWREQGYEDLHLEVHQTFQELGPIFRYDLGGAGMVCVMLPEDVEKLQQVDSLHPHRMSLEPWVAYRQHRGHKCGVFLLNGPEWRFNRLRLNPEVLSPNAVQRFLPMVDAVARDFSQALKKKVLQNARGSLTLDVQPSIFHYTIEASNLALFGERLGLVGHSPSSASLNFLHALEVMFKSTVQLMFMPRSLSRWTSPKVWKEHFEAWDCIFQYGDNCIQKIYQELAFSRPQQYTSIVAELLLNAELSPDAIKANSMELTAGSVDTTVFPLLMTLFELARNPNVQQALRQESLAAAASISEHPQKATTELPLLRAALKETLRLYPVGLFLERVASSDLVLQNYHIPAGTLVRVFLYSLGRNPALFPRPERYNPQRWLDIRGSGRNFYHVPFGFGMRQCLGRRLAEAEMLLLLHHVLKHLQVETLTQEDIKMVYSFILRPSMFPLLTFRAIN
In short: as §1

| Compound | EC50 (human CYP11B2) [µM] | EC50 (human CYP11B1) [µM] |
| --- | --- | --- |
| Cn1ncc2c(N3Cc4cc(Cl)ccc4C3=O)cncc21 [Example 116, 5-Chloro-2-(1-methyl-1H-pyrazolo[3,4-c]pyridin-4-yl)-2,3-dihydro-isoindol-1-one] | 0.132 | 5.13 |
| CCS(=O)(=O)N1CCCC(c2cncc(N3C(=O)c4ccc(Cl)cc4C3(C)C)n2)C1 (stereo not shown) [Example 464, 5-Chloro-2-[6-(1-ethanesulfonyl-piperidin-3-yl)-pyrazin-2-yl]-3,3-dimethyl-2,3-dihydro-isoindol-1-one] | 0.0028 | 1.65 |
| COC[C@@H]1CCCN1Cc1cncc(N2CCc3cc(Cl)ccc3C2=O)c1 [Example 48, 6-Chloro-2-[5-((S)-2-methoxymethyl-pyrrolidin-1-ylmethyl)-pyridin-3-yl]-3,4-dihydro-2H-isoquinolin-1-one] | 0.141 | 1.11 |
| O=C1c2ccc(Cl)cc2CCN1c1cncc(Cn2ncc3ccccc32)c1 [Example 182, 6-Chloro-2-(5-indazol-1-ylmethyl-pyridin-3-yl)-3,4-dihydro-2H-isoquinolin-1-one] | 0.0275 | 0.306 |
| CCS(=O)(=O)NCc1cncc(N2C(=O)c3ccc(F)cc3C2(C)C)c1 [Example 388, Ethanesulfonic acid [5-(6-fluoro-1,1-dimethyl-3-oxo-1,3-dihydro-isoindol-2-yl)-pyridin-3-ylmethyl]-amide] | 0.272 | 3.97 |
| CC(Nc1ncco1)c1cncc(N2CCc3cc(Cl)ccc3C2=O)c1 (stereo not shown) [Example 272, 6-Chloro-2-{5-[1-(oxazol-2-ylamino)-ethyl]-pyridin-3-yl}-3,4-dihydro-2H-isoquinolin-1-one] | 0.0604 | 0.21 |
| O=C1c2ccc(Cl)cc2CCN1c1cncc(CNC2COC2)c1 [Example 164, 6-Chloro-2-[5-(oxetan-3-ylaminomethyl)-pyridin-3-yl]-3,4-dihydro-2H-isoquinolin-1-one] | 0.141 | 0.862 |
| Cc1cccnc1C(=O)NCc1cncc(N2C(=O)c3ccc(Cl)cc3C2(C)C)c1 [Example 430, 3-Methyl-pyridine-2-carboxylic acid [5-(6-chloro-1,1-dimethyl-3-oxo-1,3-dihydro-isoindol-2-yl)-pyridin-3-ylmethyl]-amide] | 0.0069 | 0.737 |
| CC1(C)c2cc(Cl)ccc2C(=O)N1c1cncc(CNC(=O)c2ccncc2Cl)c1 [Example 437, 3-Chloro-N-[5-(6-chloro-1,1-dimethyl-3-oxo-1,3-dihydro-isoindol-2-yl)-pyridin-3-ylmethyl]-isonicotinamide] | 0.0776 | 1.64 |
| O=C1c2ccc(Cl)cc2CCN1c1cncc(Cc2cc(Cl)ccc2Cl)c1 [Example 217, 6-Chloro-2-[5-(2,5-dichloro-benzyl)-pyridin-3-yl]-3,4-dihydro-2H-isoquinolin-1-one] | 0.092 | 0.803 |
| CC(=O)NC1CCCc2c1cncc2N1Cc2cc(Cl)ccc2C1=O (single isomer, unassigned) [Example 323, N-[(R or S)-4-(5-Chloro-1-oxo-1,3-dihydro-isoindol-2-yl)-5,6,7,8-tetrahydro-isoquinolin-8-yl]-acetamide] | 0.0442 | 2.35 |
| CCC(=O)N[C@@H]1CCCc2c1cncc2N1C(=O)c2cc(Cl)ccc2[C@@H]1CC (single isomer, unassigned) [Example 313, N-[(R or S)-4-((S or R)-5-Chloro-1-ethyl-3-oxo-1,3-dihydro-isoindol-2-yl)-5,6,7,8-tetrahydro-isoquinolin-8-yl]-propionamide] | 0.118 | 3.54 |
| COCc1c(F)cncc1N1CCc2cc(Cl)ccc2C1=O [Example 75, 6-Chloro-2-(5-fluoro-4-methoxymethyl-pyridin-3-yl)-3,4-dihydro-2H-isoquinolin-1-one] | 0.166 | 2.76 |
| O=C1c2ccc(Cl)cc2CCN1c1cncc(-c2ccc(F)c(F)c2)c1 [Example 232, 6-Chloro-2-[5-(3,4-difluoro-phenyl)-pyridin-3-yl]-3,4-dihydro-2H-isoquinolin-1-one] | 0.0266 | 1.35 |
| O=C1c2ccc(Cl)cc2CCN1c1cncc(CNc2ccc(Cl)cc2)c1 [Example 260, 6-Chloro-2-{5-[(4-chloro-phenylamino)-methyl]-pyridin-3-yl}-3,4-dihydro-2H-isoquinolin-1-one] | 0.471 | 0.345 |
| O=C1c2ccc(Cl)cc2CCN1c1cncc(Cc2ccccc2C(F)(F)F)c1 [Example 213, 6-Chloro-2-[5-(2-trifluoromethyl-benzyl)-pyridin-3-yl]-3,4-dihydro-2H-isoquinolin-1-one] | 0.0391 | 0.278 |
| CC[C@@H]1c2cc(Cl)ccc2C(=O)N1c1cncc2c1CCC[C@@H]2NC(C)=O (single isomer, unassigned) [Example 355, N-[(S or R)-4-((R or S)-5-Chloro-3-ethyl-1-oxo-1,3-dihydro-isoindol-2-yl)-5,6,7,8-tetrahydro-isoquinolin-8-yl]-acetamide] | 0.0153 | 8.17 |
| COc1cncc(N2CCc3nc(Cl)ccc3C2=O)c1 [Example 96, 2-Chloro-6-(5-methoxy-pyridin-3-yl)-7,8-dihydro-6H-[1,6]naphthyridin-5-one] | 0.0458 | 0.533 |
| O=C1c2ccc(Cl)cc2CCN1c1cncc(C2CC2)c1 [Example 66, 6-Chloro-2-(5-cyclopropyl-pyridin-3-yl)-3,4-dihydro-2H-isoquinolin-1-one] | 0.0069 | 0.0697 |
| CC(=O)N1CCCC(c2cncc(N3C(=O)c4ccc(Cl)cc4C3(C)C)n2)C1 (stereo not shown) [Example 462, 2-[6-(1-Acetyl-piperidin-3-yl)-pyrazin-2-yl]-5-chloro-3,3-dimethyl-2,3-dihydro-isoindol-1-one] | 0.0326 | 0.72 |
| O=C1c2ccc(Cl)cc2CCN1c1cncc2cc[nH]c12 [Example 72, 6-Chloro-2-(1H-pyrrolo[3,2-c]pyridin-7-yl)-3,4-dihydro-2H-isoquinolin-1-one] | 0.588 | 16.5 |
| CCS(=O)(=O)Nc1cccc2c(N3CCc4cc(Cl)ccc4C3=O)cncc12 [Example 289, Ethanesulfonic acid (6-chloro-1-oxo-3,4-dihydro-1H-[2,4′]biisoquinolinyl-8′-yl)-amide] | 0.0706 | 0.186 |
| O=C1c2ccc(Cl)cc2CCN1c1cncc(Cn2ccnc2C2CC2)c1 [Example 188, 6-Chloro-2-[5-(2-cyclopropyl-imidazol-1-ylmethyl)-pyridin-3-yl]-3,4-dihydro-2H-isoquinolin-1-one] | 0.228 | 4.15 |
| CC1(COCc2cncc(N3CCc4cc(Cl)ccc4C3=O)c2)CC1 [Example 200, 6-Chloro-2-[5-(1-methyl-cyclopropylmethoxymethyl)-pyridin-3-yl]-3,4-dihydro-2H-isoquinolin-1-one] | 0.0325 | 0.315 |
| COC(=O)COc1cncc(N2CCc3cc(Cl)ccc3C2=O)c1 [Example 255, [5-(6-Chloro-1-oxo-3,4-dihydro-1H-isoquinolin-2-yl)-pyridin-3-yloxy]-acetic acid methyl ester] | 2.8 | 7.61 |
| CC1(C)CN(c2cncc(F)c2)C(=O)c2ccc(Cl)cc21 [Example 104, 6-Chloro-2-(5-fluoro-pyridin-3-yl)-4,4-dimethyl-3,4-dihydro-2H-isoquinolin-1-one] | 2.34 | 59.8 |
| Cn1ncc(C#N)c1-c1cncc(N2CCc3cc(Cl)ccc3C2=O)c1 [Example 246, 5-[5-(6-Chloro-1-oxo-3,4-dihydro-1H-isoquinolin-2-yl)-pyridin-3-yl]-1-methyl-1H-pyrazole-4-carbonitrile] | 0.102 | 0.546 |
| O=C1c2ccc(Cl)cc2CCN1c1cncc(O)c1 [Example 252, 6-Chloro-2-(5-hydroxy-pyridin-3-yl)-3,4-dihydro-2H-isoquinolin-1-one] | 0.272 | 9.76 |
| CC1(C)c2nc(Cl)ccc2C(=O)N1c1cncc(OC(F)F)c1 [Example 293, 2-Chloro-6-(5-difluoromethoxy-pyridin-3-yl)-7,7-dimethyl-6,7-dihydro-pyrrolo[3,4-b]pyridin-5-one] | 0.0164 | 0.285 |
